From publication PMC7523345 (Investigational new drugs, 2018)
Entries after “also recorded” stand apart in the source; their conditions may differ.

Assay: Phase I dose escalation study: safety, tolerability, DLT and MTD
Assay type: in vivo

Cc1cccc2c1NC(=O)[C@@H](NC(=O)[C@H](CCC(F)(F)F)[C@H](CCC(F)(F)F)C(N)=O)N=C2c1cccc(F)c1 [BMS-986115]
Leucocytosis (drug related AE, Grade 3 and 4) (Arm A QD 2.0 mg (N = 7)): 0 n (%) | Mouth ulceration (drug related AE, all grades) (Arm A QD 2.0 mg (N = 7)): 1 (14) n (%) | Nausea (drug related AE, Grade 3 and 4) (Arm A QD 2.0 mg (N = 7)): 1 (14) n (%) | Nausea (drug related AE, all grades) (Arm A QD 2.0 mg (N = 7)): 5 (71) n (%) | Pruritus (drug related AE, Grade 3 and 4) (Arm A QD 2.0 mg (N = 7)): 1 (14) n (%) | Pruritus (drug related AE, all grades) (Arm A QD 2.0 mg (N = 7)): 3 (43) n (%) | Pulmonary embolism (drug related AE, Grade 3 and 4) (Arm A QD 2.0 mg (N = 7)): 0 n (%) | Rash (drug related AE, all grades) (Arm A QD 2.0 mg (N = 7)): 1 (14) n (%) | Rash maculopapular (drug related AE, all grades) (Arm A QD 2.0 mg (N = 7)): 2 (29) n (%) | Sinusitis (drug related AE, all grades) (Arm A QD 2.0 mg (N = 7)): 0 n (%) | Urticaria (drug related AE, Grade 3 and 4) (Arm A QD 2.0 mg (N = 7)): 1 (14) n (%) | Vision blurred (drug related AE, all grades) (Arm A QD 2.0 mg (N = 7)): 0 n (%) | Vomiting (drug related AE, Grade 3 and 4) (Arm A QD 2.0 mg (N = 7)): 1 (14) n (%) | Vomiting (drug related AE, all grades) (Arm A QD 2.0 mg (N = 7)): 5 (71) n (%) | Weight decreased (drug related AE, all grades) (Arm A QD 2.0 mg (N = 7)): 0 n (%) | No. of patients with DLTs (Arm A QD 2.0 mg, 5 DLT evaluable patients): 3 | Abdominal distension (drug related AE, all grades) (Arm A QD Total (N = 24)): 1 (4) n (%) | Abdominal pain (drug related AE, Grade 3 and 4) (Arm A QD Total (N = 24)): 1 (4) n (%) | Abdominal pain (drug related AE, all grades) (Arm A QD Total (N = 24)): 2 (8) n (%) | Blood creatinine increased (drug related AE, all grades) (Arm A QD Total (N = 24)): 1 (4) n (%) | Colitis (drug related AE, Grade 3 and 4) (Arm A QD Total (N = 24)): 1 (4) n (%) | Cough (drug related AE, Grade 3 and 4) (Arm A QD Total (N = 24)): 1 (4) n (%) | Cough (drug related AE, all grades) (Arm A QD Total (N = 24)): 3 (13) n (%) | Decreased Appetite (drug related AE, Grade 3 and 4) (Arm A QD Total (N = 24)): 0 n (%) | Decreased Appetite (drug related AE, all grades) (Arm A QD Total (N = 24)): 8 (33) n (%) | Dehydration (drug related AE, Grade 3 and 4) (Arm A QD Total (N = 24)): 0 n (%) | Dehydration (drug related AE, all grades) (Arm A QD Total (N = 24)): 3 (13) n (%) | Dermatitis acneiform (drug related AE, all grades) (Arm A QD Total (N = 24)): 4 (17) n (%) | Diarrhoea (drug related AE, Grade 3 and 4) (Arm A QD Total (N = 24)): 4 (17) n (%) | Diarrhoea (drug related AE, all grades) (Arm A QD Total (N = 24)): 18 (75) n (%) | Dry mouth (drug related AE, all grades) (Arm A QD Total (N = 24)): 2 (8) n (%) | Dry skin (drug related AE, all grades) (Arm A QD Total (N = 24)): 3 (13) n (%) | Dysgeusia (drug related AE, all grades) (Arm A QD Total (N = 24)): 3 (13) n (%) | Dyspepsia (drug related AE, all grades) (Arm A QD Total (N = 24)): 2 (8) n (%) | Dysphonia (drug related AE, all grades) (Arm A QD Total (N = 24)): 4 (17) n (%) | Fatigue (drug related AE, Grade 3 and 4) (Arm A QD Total (N = 24)): 1 (4) n (%) | Fatigue (drug related AE, all grades) (Arm A QD Total (N = 24)): 10 (42) n (%) | Flatulence (drug related AE, all grades) (Arm A QD Total (N = 24)): 0 n (%) | Hypocalcaemia (drug related AE, Grade 3 and 4) (Arm A QD Total (N = 24)): 0 n (%) | Hypocalcaemia (drug related AE, all grades) (Arm A QD Total (N = 24)): 1 (4) n (%) | Hypokalaemia (drug related AE, Grade 3 and 4) (Arm A QD Total (N = 24)): 4 (17) n (%) | Hypokalaemia (drug related AE, all grades) (Arm A QD Total (N = 24)): 7 (29) n (%) | Hyponatraemia (drug related AE, Grade 3 and 4) (Arm A QD Total (N = 24)): 1 (4) n (%) | Hyponatraemia (drug related AE, all grades) (Arm A QD Total (N = 24)): 1 (4) n (%) | Hypophosphataemia (drug related AE, Grade 3 and 4) (Arm A QD Total (N = 24)): 8 (33) n (%) | Hypophosphataemia (drug related AE, all grades) (Arm A QD Total (N = 24)): 16 (67) n (%) | Ileus (drug related AE, Grade 3 and 4) (Arm A QD Total (N = 24)): 1 (4) n (%) | Increased upper airway secretion (drug related AE, all grades) (Arm A QD Total (N = 24)): 0 n (%) | Laryngeal pain (drug related AE, all grades) (Arm A QD Total (N = 24)): 2 (8) n (%) | Leucocytosis (drug related AE, Grade 3 and 4) (Arm A QD Total (N = 24)): 0 n (%) | Mouth ulceration (drug related AE, all grades) (Arm A QD Total (N = 24)): 2 (8) n (%) | Nausea (drug related AE, Grade 3 and 4) (Arm A QD Total (N = 24)): 3 (13) n (%) | Nausea (drug related AE, all grades) (Arm A QD Total (N = 24)): 15 (63) n (%) | Pruritus (drug related AE, Grade 3 and 4) (Arm A QD Total (N = 24)): 1 (4) n (%) | Pruritus (drug related AE, all grades) (Arm A QD Total (N = 24)): 6 (25) n (%) | Pulmonary embolism (drug related AE, Grade 3 and 4) (Arm A QD Total (N = 24)): 1 (4) n (%) | Rash (drug related AE, all grades) (Arm A QD Total (N = 24)): 8 (33) n (%) | Rash maculopapular (drug related AE, all grades) (Arm A QD Total (N = 24)): 2 (8) n (%) | Sinusitis (drug related AE, all grades) (Arm A QD Total (N = 24)): 2 (8) n (%) | Urticaria (drug related AE, Grade 3 and 4) (Arm A QD Total (N = 24)): 1 (4) n (%) | Vision blurred (drug related AE, all grades) (Arm A QD Total (N = 24)): 1 (4) n (%) | Vomiting (drug related AE, Grade 3 and 4) (Arm A QD Total (N = 24)): 1 (4) n (%) | Vomiting (drug related AE, all grades) (Arm A QD Total (N = 24)): 12 (50) n (%) | Weight decreased (drug related AE, all grades) (Arm A QD Total (N = 24)): 2 (8) n (%) | Patients with dose limiting toxicities (Arm A QD, all dose levels): Four | Treatment-related SAEs, description (Arm A QD, one line per subject): Gr 3 nausea with Gr 3 fatigue and Gr 4 hypophosphataemia; also recorded: Gr 3 ileus | Maximum Tolerated Dose (MTD) (Arm A, once daily (QD) oral dosing): 1.5 mg | Subjects with treatment-related SAEs (Arm B BIW): 2 subjects | Abdominal distension (drug related AE, all grades) (Arm B BIW 2 mg (N = 2)): 0 n (%) | Abdominal pain (drug related AE, Grade 3 and 4) (Arm B BIW 2 mg (N = 2)): 0 n (%)
